Measured values published in patent publication US20060183801A1, “Method of preventing or treating breast, prostate and/or cervical cancer with n, n-dimethylglycine” (FoodScience Corporation, priority 2002, published 2006).

Key:
[1] = tested on: TNF-α secretion in THP-1 cell line; assay: Cytokine bioassay: TNF-α secretion by LPS-stimulated THP-1 cells (L-929 indicator cells); type: cell-based; settings: 100 mM DMG, 24 h, measured by L-929 cells (FIG. 2)
Experimental: (§1) Cytokine bioassays utilizing cell proliferation assays were performed to assess modulation of inflammatory cytokine production by DMG (House-Development in biological Standardization 1999 (97) 13-19). Supernatants from cytokine producing cell lines (untreated control and DMG treated), were added to responder cell lines specific for that cytokine. Proliferation or inhibition of these responder/indicator cells signal the extent of cytokine secreted by the producer cell lines. The optimum cell number/well for each cell line was determined after a titration assay. All suspension producer cell lines such at THP-1, Jurkat E6-1, EL-4 and U-937 were plated on 48 well plates in a concentration of 5×10^6 cells/well, where as adherent producer cells such as LS174T were plated at a concentration of 5×10^5 cells/well. Suspension responder cell lines (CTLL-2 and 7TD-1) were used at a concentration of 1×10^6 cells/well in a 96 well plate, whereas the adherent responder cell lines (L-929 and A375.S2) were plated at a concentration of 3×10^4 cells/well and 4×10^4 cells/well respectively. THP-1 cells, which secrete Tumor Necrosis Factor-alpha (TNF-α), when stimulated with lipopolysaccharide (LPS), were treated with increasing concentrations of DMG for a period of 24 hours at 37° C. in a humidified 5% CO2 incubator. […] Samples are read at 4 hours using a BIO-RAD benchmark microplate reader at 490 nm. […]

[2] = tested on: IL-1 secretion in U-937 cell line; assay: Cytokine bioassay: IL-1 secretion by U-937 cells (A375.S2 indicator cells); type: cell-based; settings: detected by decreased proliferation of A375.S2 (FIG. 3)
Experimental: as §1

[3] = tested on: IL-2 secretion in Jurkat E6-1 cell line; assay: Cytokine bioassay: IL-2 secretion by Jurkat E6-1 cells (CTLL-2 responder cells); type: cell-based, human
Experimental: as §1

[4] = tested on: IL-2 secretion in EL-4 cell line; assay: Cytokine bioassay: IL-2 secretion by EL-4 cells (CTLL-2 responder cells); type: cell-based, mouse
Experimental: as §1

[5] = tested on: IL-6 secretion in LS 174T cell line; assay: Cytokine bioassay: IL-6 secretion by LS 174T cells (7TD1 responder cells); type: cell-based; settings: 100 mM DMG, LS 174T (FIG. 6)
Experimental: as §1

[6] = tested on: TNF alpha secretion in peripheral blood mononuclear cells; assay: Cytokine bioassay: TNF-α secretion by stimulated PBMC (L-929 indicator cells); type: cell-based; settings: 100 mM DMG, PBMC stimulated with PMA and Ionomycin; L-929 indicator cells (FIG. 7)
Experimental: (§2) Heparinized peripheral blood from healthy control volunteers was collected and layered onto room temperature (RT) polysucrose sodium diatriazoate (Histopaque 1077, Sigma Chemical Co.) in 15-ml conical tubes. These were centrifuged at 400×g for 30 minutes. Mononuclear cells were collected and washed in 10-ml phosphate buffered saline (PBS). Following a 10 min centrifugation and 250×g, the PBS were decanted and the wash step repeated. Cells were counted in a hemocytometer and adjusted to 2×10^6 cells/ml. These cells were later used in cytokine bioassays, Co-culture and in flow cytometry. Modulation of inflammatory cytokine production in Peripheral Blood Mononuclear Cells (PBMC) by DMG, was determined by the use of cytokine bioassays. Supernatants of DMG treated and untreated PBMC which produce cytokines (producers) on stimulation with mitogens (PMA and/or lonomycin), were added to responder cell lines specific for the respective cytokine. Proliferation or inhibition of these indicator cells signal the extent of cytokine secretion by the producer cell lines. The optimum cell number/well for each cell line was determined after a titration assay. PBMC were plated on 48 well plates in a concentration of 5×10^6 cells/well. […] Samples are read at 4 hours using a BIO-RAD benchmark microplate reader at 490 nm. […]

[7] = tested on: IL-1 secretion in peripheral blood mononuclear cells; assay: Cytokine bioassay: IL-1 secretion by stimulated PBMC (A375.S2 responder cells); type: cell-based; settings: 100 mM DMG
Experimental: as §2

[8] = tested on: IL-2 secretion in peripheral blood mononuclear cells; assay: Cytokine bioassay: IL-2 secretion by stimulated PBMC (HT-2 responder cells); type: cell-based; settings: 100 mM DMG
Experimental: as §2

melanoma cells [9] = assay: Co-culture proliferation assay: DMG treated stimulated Jurkat E6-1 with melanoma cells; type: cell-based; settings: PMA/Ionomycin stimulated Jurkat E6-1 in co-culture
Experimental: (§3) A proliferation assay was designed to determine the ability of DMG treated cytokine producing cells to inhibit growth of melanoma cell lines, breast cancer cell lines, a prostate cancer cell line, and cervical cancer cell lines. The cytokine bioassays utilizing cell proliferation assays were performed to assess modulation of inflammatory cytokine production by DMG. Cytokine bioassays are well known in the art. (Thorpe R: Developments in Biological Standardization 1999, 97:61-71 and Mire-Sluis AR: Journal of Immunological Methods 1995, 187 (2):191-199)
(§4) The cell lines and murine B16 as indicator cells were used to observe the modulating effects of DMG. The optimum cell number per well for each cell line was determined after titration assay. Stimulated and unstimulated cytokine producing cell lines (Jurkat e6-1, EL-4, MG-63 and U-937) were treated with DMG for 24 hours prior to culture with cancer cell lines. […]
(§5) A proliferation assay was designed to determine the ability of DMG treated cytokine producing cells to inhibit growth of human breast cancer cell lines MCF-7, BT-20 and T47D, human prostrate cancer PC-3 cell line, human cervical cancer Caski and SiHa cell lines and melanoma cell lines. […] The optimum cell number/well for each cell line was determined after a titration assay. […]

A375.S2 melanoma cells [10] = assay: Co-culture proliferation assay: DMG treated U-937 with A375.S2 melanoma cells; type: cell-based, human; settings: DMG treated U-937 in co-culture
Experimental: as §3, §4, §5

melanoma cells [11] = assay: Co-culture proliferation assay: DMG treated stimulated MG-63 with melanoma cells; type: cell-based; settings: DMG treated stimulated MG-63 (produces IFN-β) in co-culture
Experimental: as §3, §4, §5

A375.S2 melanoma cells [12] = assay: Co-culture proliferation assay: DMG treated PBMC with A375.S2 melanoma cells; type: cell-based, human
Experimental: (§6) Heparinized peripheral blood from healthy control volunteers was collected and layered onto room temperature (RT) polysucrose sodium diatriazoate (Histopaque 1077, Sigma Chemical Co.) in 15-ml conical tubes. These were centrifuged at 400×g for 30 minutes. Mononuclear cells were collected and washed in 10-ml phosphate buffered saline (PBS). Following a 10 min centrifugation and 250×g, the PBS were decanted and the wash step repeated. Cells were counted in a hemocytometer and adjusted to 2×10^6 cells/ml. These cells were later used in cytokine bioassays, Co-culture and in flow cytometry.
(§7) A proliferation assay was designed to determine the ability of DMG treated cytokine producing cells to inhibit growth of human breast cancer cell lines MCF-7, BT-20 and T47D, human prostrate cancer PC-3 cell line, human cervical cancer Caski and SiHa cell lines and melanoma cell lines. Three melanoma cell lines, human A375.S2 and Hs 294T, and murine B16 as indicator cells were used to observe the modulating effects of DMG. The optimum cell number/well for each cell line was determined after a titration assay. Stimulated and unstimulated cytokine producing cell lines (Jurkat E6-1, EL-4, MG-63 and U-937) were treated with DMG for 24 hr prior to culture with melanoma cells. Similarly, PBMC were also treated with DMG and cultured with melanoma cells. […]

Hs 294T melanoma cells = assay: Co-culture proliferation assay: DMG treated PBMC with Hs 294T melanoma cells; type: cell-based; settings: Homo sapiens; PBMC treated with 100 mM DMG, Hs 294T co-culture (FIG. 14); read-out: inhibitory effect over controls (melanoma inhibition by PBMC)
Experimental: as §6, §7

[13] = tested on: T47D breast cancer cell line; assay: Co-culture proliferation assay: DMG treated Jurkat E6-1 with T47D breast cancer cells; type: cell-based, human; settings: Jurkat E6-1 treated with DMG 24 hours prior to culture (FIG. 18)
Experimental: as §3, §4, §5

[14] = tested on: MCF-7 breast cancer cells; assay: Co-culture proliferation assay: DMG treated Jurkat E6-1 with MCF-7 breast cancer cells; type: cell-based, human; settings: Jurkat E6-1 treated with DMG 24 hours prior to culture (FIG. 17)
Experimental: as §3, §4, §5

[15] = tested on: MCF-7 breast cancer cell line; assay: Co-culture proliferation assay: DMG treated stimulated PBMC with MCF-7 cells; type: cell-based, human; settings: DMG treated stimulated PBMC in co-culture (FIG. 19)
Experimental: as §6, §7

[16] = tested on: T47D breast cancer cell line; assay: Co-culture proliferation assay: DMG treated stimulated PBMC with T47D cells; type: cell-based, human; settings: DMG treated stimulated PBMC in co-culture (FIG. 20)
Experimental: as §6, §7

[17] = tested on: Caski human cervical carcinoma cells; assay: Co-culture proliferation assay: DMG treated Jurkat E6-1 with Caski cervical cells; type: cell-based; settings: Jurkat E6-1 treated with DMG 24 hours prior to culture (FIG. 22-23)
Experimental: as §3, §4, §5

[18] = tested on: SiHa human cervical carcinoma cells; assay: Co-culture proliferation assay: DMG treated Jurkat E6-1 with SiHa cervical cells; type: cell-based; settings: Jurkat E6-1 treated with DMG 24 hours prior to culture (FIG. 24-25)
Experimental: as §3, §4, §5

[19] = tested on: prostate adenocarcinoma cell line PC-3; assay: Co-culture proliferation assay: DMG treated stimulated PBMC with PC-3 prostate cells; type: cell-based, human; settings: DMG treated stimulated PBMC in co-culture (FIG. 26)
Experimental: as §6, §7

## CN(C)CC(=O)O [DMG, N,N-dimethylglycine]
[1]
  increase of TNF-α levels over baseline control levels: 7%
[2]; 10 mM DMG
  increase of IL-1 secretion: 4.5%
[2]; 100 mM DMG
  increase of IL-1 secretion: 6.5%
[3]; 10 mM DMG, Jurkat E6-1 (FIG. 4)
  increase of IL-2 secretion: 3%
[3]; 100 mM DMG, Jurkat E6-1 supernatant (FIG. 4)
  increase of IL-2 levels (increase in proliferation of CTLL-2): 10%
[4]; 10 mM DMG, EL-4 (FIG. 5)
  increase of IL-2 secretion: 2.5%
[4]; 100 mM DMG, EL-4 supernatant (FIG. 5)
  increase of IL-2 levels (increase in proliferation of CTLL-2): 6%
[5]
  increase of IL-6 production levels: 7%
[6]
  increase of TNF-α over stimulated baseline controls: 9%
[7]
  enhancement of IL-1 expression levels: 8%
[8]
  enhancement of IL-2 expression levels: 10%
Melanoma cells [9]
  increased inhibition of melanoma cells over baseline stimulated control: 8%
A375.S2 melanoma cells [10]
  decrease in the proliferation of A375.S2 cells: 30%
Melanoma cells [11]
  melanoma inhibition: increased level of melanoma inhibition
A375.S2 melanoma cells [12]; PBMC treated with 100 mM DMG, A375.S2 co-culture
  proliferation decrease in melanoma cell growth over stimulated baseline control: 17%
A375.S2 melanoma cells [12]; PBMC treated with increasing concentrations of DMG
  A375.S2 proliferation, dose dependence: Significant dose dependent reductions
Hs 294T melanoma cells
  inhibition at 100000 µM: 13%
[13]
  inhibition of T47D cells: typical dose dependent effect
[14]
  inhibition of MCF-7 cells: dose dependent effect
[15]
  inhibition of MCF-7 cell line: dose response inhibition
[16]
  inhibition of T47D cell line: dose response inhibition
[17]
  inhibition of Caski cell line: dose response inhibition
[18]
  inhibition of SiHa cell line: dose response inhibition
[19]
  inhibition of PC-3 cell line: dose response inhibition
